Results: patent US10280170B2, “Substituted 4,5,6,7-tetrahydro-pyrazolo[1,5-a]pyrazine derivatives and 5,6,7,8-tetrahydro-4H-pyrazolo[1,5-a][1,4]diazepine derivatives as Ros1 inhibitors” (Janssen Pharmaceutica NV, priority 2014, dated 2019)
Like-named read-outs stand apart in the source and are kept apart here.

Legend:
[1] = biological target: T1, Ba/F3 cells containing Ros1 wild-type protein (Homo sapiens, UniProt P08922, cells depend on it, form not given); test: Ba/F3-Ros1 cell proliferation assay, wild-type Ros1; format: cell-based, murine; settings: without IL-3
T1 construct: The background only speaks of 'a number of different unrelated proteins' and names SLC34A2-ROS1 for HCC78 cells
Method in brief: (§1)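 Ba/F3 cells expressing wild-type, L2026M or G2032R Ros1, 20000 cells/well in phenol red-free RPMI-1640 with 10% FBS, 2 mM L-glutamine, exposed to compound for 24 h at 37 °C, 5% CO2. Viability read by Alamar Blue (resazurin) fluorescence, ex 540/em 590 nm, after 4 h further incubation.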

[2] = tested on: HCC78 non-small cell lung cancer cells; test: HCC78 cell proliferation assay; format: cell-based; settings: for EC50: Homo sapiens, HCC78, 96 h, read-out: HCC-78 PROL pEC50 (converted)
Method in brief: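 HCC78 NSCLC cells (~1000/well) in RPMI-1640 with 10% FBS were treated 24 h after seeding and exposed to compound for 4 days at 37 °C. Viability was read by MTT, with absorbance at 538 nm after DMSO/glycine solubilization.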

[3] = biological target: Ba/F3 cells containing Ros1 with a mutation at the gatekeeper residue (L2026M) (Homo sapiens, UniProt P08922, L2026M, cells depend on it, form not given); test: Ba/F3-Ros1 cell proliferation assay, L2026M gatekeeper mutant; format: cell-based, murine; settings: without IL-3
Method in brief: as §1

[4] = tested on: Ba/F3 cells containing Ros1 wild-type protein + IL-3; test: Ba/F3-Ros1 cell proliferation counter-screen, wild-type protein in the presence of 10 ng/ml murine IL-3; format: cell-based; settings: Mus musculus, BaF3, 24 h, read-out: BaF3-ROS1 + IL3 pIC50 (converted)
Method in brief: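 Ba/F3 cells expressing wild-type Ros1, 20000 per well in RPMI-1640 with 10% FBS, cultured with compounds for 24 h at 37 °C with 10 ng/ml murine IL-3. Alamar Blue (resazurin) then added for 4 h. Fluorescence read at ex 540/em 590 nm.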

Ros1 enzyme = biological target: T2, Ros1 enzyme (Homo sapiens, UniProt P08922); test: Ros1 enzymatic assay; format: biochemical; settings: Ros1 enzymatic assay; read-out: ROS1 pIC50 (converted)
T2 construct: 0.5 μg/ml Ros1 enzyme
Method in brief: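 A radiometric assay mixed enzyme mix (0.5 μg/ml human Ros1) with substrate mix (6 μg/ml biotinylated IRS-Tide, 20 μM ATP plus [33P]ATP), both in 50 mM Tris-HCl pH 7.5, 10 mM MgCl2, 1 mM EGTA, 0.01% Tween-20. The reaction ran 120 min at room temperature, was stopped with EDTA plus streptavidin imaging beads, and was read by LEADseeker imaging.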

[5] = counter-screen, wild-type, 10 ng/ml murine IL-3

Sequence of Ba/F3 cells containing Ros1 with a mutation at the gatekeeper residue (L2026M) (P08922 whole entry L2026M, form open): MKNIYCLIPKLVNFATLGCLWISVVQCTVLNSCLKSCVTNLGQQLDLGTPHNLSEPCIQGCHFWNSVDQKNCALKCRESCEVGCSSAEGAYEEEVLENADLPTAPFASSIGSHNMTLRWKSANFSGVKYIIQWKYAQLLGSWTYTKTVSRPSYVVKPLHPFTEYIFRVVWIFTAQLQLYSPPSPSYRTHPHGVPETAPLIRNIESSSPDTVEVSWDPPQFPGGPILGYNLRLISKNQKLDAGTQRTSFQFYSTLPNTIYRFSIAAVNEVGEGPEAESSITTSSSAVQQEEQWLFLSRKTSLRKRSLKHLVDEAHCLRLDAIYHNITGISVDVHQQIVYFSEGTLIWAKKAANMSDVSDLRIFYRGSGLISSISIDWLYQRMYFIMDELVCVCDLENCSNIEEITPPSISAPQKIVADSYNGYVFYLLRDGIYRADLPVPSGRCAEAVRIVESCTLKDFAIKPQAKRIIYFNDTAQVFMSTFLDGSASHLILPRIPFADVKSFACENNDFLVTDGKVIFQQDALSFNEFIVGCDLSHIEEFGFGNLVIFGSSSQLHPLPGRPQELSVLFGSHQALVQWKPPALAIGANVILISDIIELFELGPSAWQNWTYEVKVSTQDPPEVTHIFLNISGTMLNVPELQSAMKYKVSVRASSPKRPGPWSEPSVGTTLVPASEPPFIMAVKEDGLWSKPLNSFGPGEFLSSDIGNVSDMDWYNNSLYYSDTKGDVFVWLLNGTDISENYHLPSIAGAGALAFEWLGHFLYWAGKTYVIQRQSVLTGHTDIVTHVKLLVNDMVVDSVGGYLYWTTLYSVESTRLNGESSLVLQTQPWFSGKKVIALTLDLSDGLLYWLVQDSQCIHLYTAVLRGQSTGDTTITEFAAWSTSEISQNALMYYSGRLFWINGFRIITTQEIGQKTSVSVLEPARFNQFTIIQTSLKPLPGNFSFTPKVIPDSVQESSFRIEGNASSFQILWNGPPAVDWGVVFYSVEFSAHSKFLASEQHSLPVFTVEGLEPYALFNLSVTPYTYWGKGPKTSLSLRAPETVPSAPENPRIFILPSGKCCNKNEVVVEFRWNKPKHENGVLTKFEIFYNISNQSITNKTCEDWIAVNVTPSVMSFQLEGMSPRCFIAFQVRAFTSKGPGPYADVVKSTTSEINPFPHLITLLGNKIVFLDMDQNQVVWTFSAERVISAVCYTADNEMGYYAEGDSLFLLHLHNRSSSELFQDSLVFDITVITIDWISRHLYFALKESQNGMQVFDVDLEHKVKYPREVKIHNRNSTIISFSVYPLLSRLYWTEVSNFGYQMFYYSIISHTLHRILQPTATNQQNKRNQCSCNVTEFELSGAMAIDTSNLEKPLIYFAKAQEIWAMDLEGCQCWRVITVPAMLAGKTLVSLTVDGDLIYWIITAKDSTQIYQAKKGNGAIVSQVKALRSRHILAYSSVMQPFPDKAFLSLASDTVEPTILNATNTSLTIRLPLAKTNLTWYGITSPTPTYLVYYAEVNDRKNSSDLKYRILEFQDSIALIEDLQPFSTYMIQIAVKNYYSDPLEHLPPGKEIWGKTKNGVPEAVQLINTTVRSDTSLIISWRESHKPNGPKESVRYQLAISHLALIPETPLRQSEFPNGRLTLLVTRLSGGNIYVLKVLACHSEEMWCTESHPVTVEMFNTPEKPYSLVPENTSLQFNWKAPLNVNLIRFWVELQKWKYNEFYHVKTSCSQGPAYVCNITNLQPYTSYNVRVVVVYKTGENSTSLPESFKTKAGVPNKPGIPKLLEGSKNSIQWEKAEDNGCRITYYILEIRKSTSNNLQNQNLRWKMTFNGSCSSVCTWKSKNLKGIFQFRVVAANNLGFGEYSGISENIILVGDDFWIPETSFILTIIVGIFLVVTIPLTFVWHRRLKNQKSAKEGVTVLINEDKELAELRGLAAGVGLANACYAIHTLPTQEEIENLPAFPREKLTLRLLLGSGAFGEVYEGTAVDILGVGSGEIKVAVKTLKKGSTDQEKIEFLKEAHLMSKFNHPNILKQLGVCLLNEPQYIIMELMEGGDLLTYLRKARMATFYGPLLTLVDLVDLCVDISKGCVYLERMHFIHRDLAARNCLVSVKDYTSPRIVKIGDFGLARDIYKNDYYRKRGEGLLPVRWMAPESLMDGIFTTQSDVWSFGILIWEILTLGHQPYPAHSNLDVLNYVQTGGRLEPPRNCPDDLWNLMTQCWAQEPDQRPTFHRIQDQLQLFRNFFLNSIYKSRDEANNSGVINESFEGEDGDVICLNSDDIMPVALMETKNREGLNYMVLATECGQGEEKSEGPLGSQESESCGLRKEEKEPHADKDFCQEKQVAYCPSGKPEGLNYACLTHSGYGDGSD
T1 sequence (P08922 whole entry, stated change not applied): as the sequence (P08922 whole entry L2026M, form open) above, with M2026L counted along it
T2 sequence (P08922 28-2347): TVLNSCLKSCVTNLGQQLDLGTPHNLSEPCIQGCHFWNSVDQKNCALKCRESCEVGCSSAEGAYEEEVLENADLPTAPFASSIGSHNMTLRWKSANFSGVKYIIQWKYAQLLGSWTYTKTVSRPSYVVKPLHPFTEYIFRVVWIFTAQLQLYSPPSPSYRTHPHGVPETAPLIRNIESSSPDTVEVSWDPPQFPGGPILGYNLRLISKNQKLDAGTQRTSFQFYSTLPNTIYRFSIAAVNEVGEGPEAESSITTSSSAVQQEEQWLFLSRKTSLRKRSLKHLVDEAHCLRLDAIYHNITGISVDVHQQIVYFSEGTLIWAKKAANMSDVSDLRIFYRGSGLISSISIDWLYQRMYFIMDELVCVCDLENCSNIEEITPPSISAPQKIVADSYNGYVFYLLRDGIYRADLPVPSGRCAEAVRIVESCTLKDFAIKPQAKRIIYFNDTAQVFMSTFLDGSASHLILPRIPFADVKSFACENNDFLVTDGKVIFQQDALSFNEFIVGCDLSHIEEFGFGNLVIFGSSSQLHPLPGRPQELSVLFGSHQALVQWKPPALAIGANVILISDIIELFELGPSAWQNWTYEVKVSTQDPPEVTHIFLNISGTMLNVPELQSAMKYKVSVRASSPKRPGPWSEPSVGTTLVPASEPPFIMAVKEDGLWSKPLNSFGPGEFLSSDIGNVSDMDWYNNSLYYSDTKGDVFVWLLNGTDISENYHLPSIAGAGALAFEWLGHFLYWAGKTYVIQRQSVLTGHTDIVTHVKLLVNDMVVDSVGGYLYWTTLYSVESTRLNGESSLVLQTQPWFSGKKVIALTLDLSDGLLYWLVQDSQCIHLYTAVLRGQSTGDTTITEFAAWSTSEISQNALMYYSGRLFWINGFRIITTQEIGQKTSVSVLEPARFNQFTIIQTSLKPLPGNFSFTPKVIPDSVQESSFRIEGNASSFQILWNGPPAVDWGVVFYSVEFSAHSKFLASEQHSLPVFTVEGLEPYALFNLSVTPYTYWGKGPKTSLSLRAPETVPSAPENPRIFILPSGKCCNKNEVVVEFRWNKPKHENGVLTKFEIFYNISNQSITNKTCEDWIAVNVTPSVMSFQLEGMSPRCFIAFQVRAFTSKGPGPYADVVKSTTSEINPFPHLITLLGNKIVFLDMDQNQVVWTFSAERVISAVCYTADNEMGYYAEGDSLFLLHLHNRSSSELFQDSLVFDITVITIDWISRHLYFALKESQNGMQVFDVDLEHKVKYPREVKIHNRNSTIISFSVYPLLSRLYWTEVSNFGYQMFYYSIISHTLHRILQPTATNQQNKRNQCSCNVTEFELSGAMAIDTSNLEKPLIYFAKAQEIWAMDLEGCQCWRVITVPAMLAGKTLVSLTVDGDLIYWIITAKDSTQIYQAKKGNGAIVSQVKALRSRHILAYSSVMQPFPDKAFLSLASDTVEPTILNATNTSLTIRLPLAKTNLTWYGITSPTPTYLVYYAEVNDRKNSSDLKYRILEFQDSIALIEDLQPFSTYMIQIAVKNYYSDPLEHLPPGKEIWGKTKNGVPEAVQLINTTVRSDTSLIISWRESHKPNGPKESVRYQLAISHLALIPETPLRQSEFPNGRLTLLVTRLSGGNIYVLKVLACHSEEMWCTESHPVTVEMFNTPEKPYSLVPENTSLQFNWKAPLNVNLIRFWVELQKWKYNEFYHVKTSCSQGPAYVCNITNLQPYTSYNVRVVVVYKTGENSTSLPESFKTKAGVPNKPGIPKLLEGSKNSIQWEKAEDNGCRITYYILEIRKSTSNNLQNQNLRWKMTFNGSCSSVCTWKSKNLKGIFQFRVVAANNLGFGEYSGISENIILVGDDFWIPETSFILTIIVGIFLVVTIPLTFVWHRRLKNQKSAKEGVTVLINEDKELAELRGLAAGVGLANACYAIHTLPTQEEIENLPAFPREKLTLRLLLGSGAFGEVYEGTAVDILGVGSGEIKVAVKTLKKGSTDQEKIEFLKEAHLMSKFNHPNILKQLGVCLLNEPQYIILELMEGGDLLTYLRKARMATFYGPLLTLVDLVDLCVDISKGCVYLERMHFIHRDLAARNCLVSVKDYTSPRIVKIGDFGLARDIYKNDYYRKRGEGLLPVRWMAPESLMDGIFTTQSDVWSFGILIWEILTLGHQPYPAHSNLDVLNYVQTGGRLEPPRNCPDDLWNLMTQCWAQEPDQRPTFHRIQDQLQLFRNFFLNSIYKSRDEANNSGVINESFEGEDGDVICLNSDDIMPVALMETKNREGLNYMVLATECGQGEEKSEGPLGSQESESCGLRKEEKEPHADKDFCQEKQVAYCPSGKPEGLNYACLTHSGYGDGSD

SMILES	BaF3-ROS1-IL3 pIC50 [1]	EC50 [2]	Ba/F3 Ros1 L2026M (-IL-3) pIC50 [3]	CC50 [4]	IC50 (Ros1 enzyme)	melting point	EC50 ([2]; HCC78 cells, 4 days, MTT)	CC50 [4, 5]	HCC-78 PROL pEC50 ([2]; HCC78 cells, 4 days, MTT)
CC(C)c1ccc(COc2ccc(-c3c(-c4ccncc4)nn4c3C(=O)NCC4)c(C#N)c2)cc1 [Compound 27]	7.7	20 nM	7.1	> 10000 nM	15.8 nM	268 °C	–	–	–
O=C1c2c(-c3ccc(OCc4ccc(C5CC5)c(F)c4)cc3)c(-c3ccncc3)nn2CCN1CCO [Compound 137]	6.8	398 nM	6.4	> 10000 nM	126 nM	185 °C	–	–	–
CCC(C)c1ccc(COc2ccc(-c3c(-c4ccncc4)nn4c3C(=O)N(CCO)CC4)cc2)cc1 (stereo not drawn) [Compound 107]	7.7	79.4 nM	7.4	> 10000 nM	20 nM	163 °C	–	–	–
CC(C)c1ccc(COc2ccc(-c3c(-c4ccncc4Cl)nn4c3C(=O)NCC4)cc2)cc1 [Compound 154]	6.9	316 nM	7.1	> 10000 nM	100 nM	207 °C	–	–	–
CC(C)c1ccc(COc2ccc(-c3c(-c4ccncc4)nn4c3C(=O)NCC4)c(Cl)c2)cc1 [Compound 24]	7.8	1.58 nM	8.2	> 10000 nM	7.94 nM	267 °C	–	–	–
COc1cc(-c2c(-c3ccncc3)nn3c2C(=O)NCC3)ncc1OCc1ccc(C(C)C)cc1 [Compound 72]	7.2	251 nM	6.0	> 10000 nM	63.1 nM	231 °C	–	–	–
CC(C)c1ccc(COc2ccc(-c3c(-c4ccnc5[nH]ccc45)nn4c3C(=O)N(CCO)CC4)cc2)cc1 [Compound 156]	8.0	–	7.0	–	63.1 nM	219 °C	20 nM	> 10000 nM	–
CC(C)(C#N)c1ccc(COc2ccc(-c3c(-c4ccncc4)nn4c3C(=O)N(CCO)CC4)cc2)cc1 [Compound 122]	6.9	63.1 nM	7.1	> 10000 nM	126 nM	199 °C	–	–	–
CC(C)c1ccc(C(C)Oc2ccc(-c3c(-c4ccncc4)nn4c3C(=O)N(CCO)CC4)cc2)cc1 (stereo not drawn) [Compound 144]	6.3	–	5.7	–	1260 nM	148 °C	–	> 10000 nM	5.0
CC(C)c1ccc(C(CN)Oc2ccc(-c3c(-c4ccncc4)nn4c3C(=O)NCC4)cc2)cc1 (stereo not drawn) [Compound 147]	5.4	3980 nM	6.7	3980 nM	3980 nM	178 °C	–	–	–
O=C1c2c(-c3ccc(OCc4ccc(C5CC5)cc4)cc3)c(-c3ccncn3)nn2CCN1CCO [Compound 167]	7.2	501 nM	6.2	> 10000 nM	126 nM	170 °C	–	–	–
CC(C)c1ccc(COC2CCN(c3c(-c4ccncc4)nn4c3C(=O)N(C)CC4)CC2)cc1 [Compound 215]	7.0	–	7.2	–	126 nM	140 °C	251 nM	> 10000 nM	–
CC(C)c1ccc(COc2ccc(-c3c(-c4ccncc4)nn4c3C(=O)NCC4)cc2)cc1C#N [Compound 85]	7.4	–	7.1	–	39.8 nM	240 °C	316 nM	> 10000 nM	–
Cc1cc(-c2c(-c3ccncc3)nn3c2C(=O)N(CCO)CC3)cc(C)c1OCc1ccc(C(C)C)cc1 [Compound 30]	<5	> 10000 nM	<5	> 10000 nM	> 10000 nM	170 °C	–	–	–
CC(C)c1ccc(COc2ccc(-c3c(-c4ccncc4)nn4c3CN(CC(=O)NCCO)CC4)cc2)cc1 [Compound 175]	6.9	398 nM	6.8	5010 nM	100 nM	189 °C	–	–	–
CC(C)c1ccc(COc2ccc(-c3c(-c4ccncc4)nn4c3C(=O)NCC4)cc2)cc1CCN [Compound 88]	7.1	–	6.8	–	12.6 nM	181 °C	79.4 nM	> 10000 nM	–
CC(C)c1ccc(COc2ccc(-c3c(-c4ccncc4)nn4c3C(=O)N(CC(O)CO)CC4)cc2)cc1 (stereo not drawn) [Compound 43]	7.4	–	7.3	–	50.1 nM	190 °C	–	> 10000 nM	6.9
CC(C)c1ccc(COc2ccc(-c3c(-c4ccncc4)nn4c3C(=O)NCC4)c(F)c2F)cc1 [Compound 16]	7.4	398 nM	7.1	> 10000 nM	100 nM	214 °C	–	–	–
N#CC1(c2ccc(COc3ccc(-c4c(-c5ccncc5)nn5c4C(=O)NCC5)cc3)cc2)CC1 [Compound 123]	7.4	398 nM	7.1	> 10000 nM	39.8 nM	260 °C	–	–	–
CC(C)NC(=O)CN1CCn2nc(-c3ccncc3)c(-c3ccc(OCc4ccc(C(C)C)cc4)cc3)c2C1=O [Compound 65]	7.2	316 nM	6.7	> 10000 nM	100 nM	159 °C	–	–	–
CC(C)c1ccc(COc2ccc(-c3c(-c4ccncc4)nn4c3C(=O)N(CCO)CC4)c(F)c2F)cc1 [Compound 20]	6.9	1580 nM	7.0	> 10000 nM	100 nM	138 °C	–	–	–
CC(C)c1ccc(COc2cnc(-c3c(-c4ccncc4)nn4c3C(=O)NCC4)cn2)cc1 [Compound 76]	6.8	794 nM	7.0	> 10000 nM	251 nM	225 °C	–	–	–
